{"source": "patent US6348483B1", "about": "“Use of derivatives of methylene-bis-oxazolidine and compositions obtained thereby” (Air Liquide Sante (International), priority 1998, dated 2002)", "system": "Chlorella fusca (CF)", "assay": "Algistatic finish (SM 023) of pure acrylate house paint", "format": "cell-based", "details": "without and with stress due to leaching; active compound concentration of 0.2% by weight based on house paint and test substance", "experimental": "In separate batches, the test concentrations of the active compounds/products were incorporated into the house paint, and the fungicidal and/or algistatic finish was determined using the stated test methods.\nIncorporation and testing were carried out according to the methods SM 022 and SM 023 below.\nThis laboratory method was employed for determining the resistance of house coatings to colonization by algae. For this method, house coatings on standardized paper are used as test substrate and Chlorella fusca is used as test alga. It is furthermore possible to use pure cultures of other algae species of practical relevance.\nThe experiments were carried out in Petri dishes on agar nutrient media.\n50 g of the material to be finished were, in separate batches, mixed with various concentrations of the algicide to be examined and homogenized for 3-5 min using a basket stirrer.\nPaper carrier materials having the dimensions 90×270 mm (Schleicher & Schüll No. 2589 B/X 24078) were coated with the test material. The paint and/or render samples were coated to a wet-layer thickness of 250 μm by knife coating. […] In the case of renders, the layer thickness depends, as in practice, on the particle size. The coated carrier materials, hereinbelow referred to as test bodies, were subsequently dried in a horizontal position for five days.\n[…] The cross section of the container for the watering in the direction of flow was 1000±500 cm^2.\nFrom the pretreated test bodies, three sample bodies having a diameter of 5 cm were punched out and sterilized in a Co^60 source using at least 10 kGy.\nAseptically, the samples were placed onto the algae nutrient media, and the centre of the sample was inoculated with 5 ml of each algae suspension.\nThe mixture of the algae suspensions was spread on the surface using a Drigalski spatula or an offset sterile glass rod.\nDuring the growth phase at 22±2° C., the coated samples in the Petri dishes were irradiated with light of an intensity of about 1000 Lux (customary fluorescent tubes, type D 67 daylight). A cycle of in each case 12 hours of irradiation and 12 hours of storage in the dark was used.\nThe colonization of the samples by algae was examined and evaluated after two weeks. Evaluation was carried out visually. The evaluation of the samples was based on the following evaluation scale:\nNo growth of algae on the test bodies\nFormation of an inhibitory zone or growth of algae on the nutrient medium up to the edge of the test bodies\nVisible colonization of the test body by algae", "data": [{"smiles": "COC(=O)Nc1nc2ccccc2[nH]1", "note": "[carbendazim, Methyl 1H-benzimidazol-2-ylcarbamate]", "values": [{"measurement": "Algicidal action (in words)", "result": "no algicidal action"}]}]}
